Measurements reported in the NIST ThermoML archive (doi:10.1021/je030133a).
Values joined by “and” are separate entries in the source; they are usually repeats but may differ in a detail not shown here. Identical values can stand only once.

Experiments:
[1] = 101.3 kPa, Liquid
[2] = xn = mol fraction of the nth substance listed; conditions: 101.3 kPa, Liquid

C1COCCO1 [1,4-dioxane]
[1]
Conditions	mass density [kg/m3]	viscosity
303.15 K	1022.3	1.099 mPa·s and 1.098 mPa·s
308.15 K	1016.7	1.03 mPa·s
313.15 K	1012	0.9575 mPa·s

C1COCCO1 [1,4-dioxane] + CCCCO
[2]
Conditions	mass density, 303.15 K [kg/m3]	mass density, 308.15 K [kg/m3]	mass density, 313.15 K [kg/m3]	viscosity, 303.15 K [mPa·s]	viscosity, 308.15 K [mPa·s]	viscosity, 313.15 K [mPa·s]
x1 = 0.1066	826.5	818.4	816.8	2.011	1.683	1.522
x1 = 0.2116	847.6	839.9	837.9	1.635	1.362	1.281
x1 = 0.3151	868.6	861.3	859	1.37	1.165	1.094
x1 = 0.4171	889.9	882.7	880.2	1.243	1.081	0.9963
x1 = 0.5177	911.3	904.3	901.5	1.164	1.032	0.9565
x1 = 0.6169	932.8	926.2	923.1	1.093	1.007	0.9426
x1 = 0.6659	943.6	937.3	934	1.064	0.9903	0.9289
x1 = 0.7146	954.6	948.4	945.2	1.038	0.9768	0.919
x1 = 0.763	965.6	959.6	956.3	1.016	0.9543	0.9043
x1 = 0.8111	976.7	971	967.4	1.015	0.9484	0.9234
x1 = 0.8588	987.9	982.3	978.6	1.031	0.9507	0.9384
x1 = 0.9062	999.2	993.6	989.7	1.065	0.9793	0.9315
x1 = 1	1022.3	1016.7	1012	1.098	1.03	0.9575

C1COCCO1 [1,4-dioxane] + ClC(Cl)(Cl)Cl
[2], x1 = 1
Conditions	mass density [kg/m3]	viscosity [mPa·s]
303.15 K	1022.3	1.099
308.15 K	1016.7	1.03
313.15 K	1012	0.9575

CCCCO [butan-1-ol]
[1]
Conditions	mass density [kg/m3]	viscosity
303.15 K	805.7	2.282 mPa·s
308.15 K	797.2	1.907 mPa·s and 1.895 mPa·s
313.15 K	795.5	1.681 mPa·s

CCCCO [butan-1-ol] + C1COCCO1
[2], x2 = 0
Conditions	mass density [kg/m3]	viscosity [mPa·s]
303.15 K	805.7	2.282
308.15 K	797.2	1.895
313.15 K	795.5	1.681

CCCCO [butan-1-ol] + ClC(Cl)(Cl)Cl
[2], x2 = 0
Conditions	mass density [kg/m3]	viscosity [mPa·s]
303.15 K	805.7	2.282
308.15 K	797.2	1.907
313.15 K	795.5	1.681

ClC(Cl)(Cl)Cl [tetrachloromethane]
[1]
Conditions	mass density	viscosity
303.15 K	1580.6 kg/m3	0.8689 mPa·s
308.15 K	1575.7 kg/m3	0.8307 mPa·s
313.15 K	1570.9 kg/m3 and 1571.3 kg/m3	0.807 mPa·s and 0.8072 mPa·s

ClC(Cl)(Cl)Cl [tetrachloromethane] + C1COCCO1
[2]
Conditions	mass density, 303.15 K [kg/m3]	mass density, 308.15 K [kg/m3]	mass density, 313.15 K [kg/m3]	viscosity, 303.15 K [mPa·s]	viscosity, 308.15 K [mPa·s]	viscosity, 313.15 K [mPa·s]
x2 = 0	1580.6	1575.7	1570.9	0.8689	0.8307	0.807
x2 = 0.1116	1520.6	1517.3	1513.2	0.945	0.8954	0.8454
x2 = 0.2204	1462.3	1458.6	1455.1	0.9938	0.9391	0.8848
x2 = 0.3265	1405.3	1401.1	1396.9	1.036	0.9771	0.9244
x2 = 0.4299	1349	1344.8	1340.9	1.073	1.01	0.9531
x2 = 0.5307	1294.3	1290.5	1286.9	1.11	1.044	0.9892
x2 = 0.6291	1240.9	1236.2	1232.5	1.136	1.066	1.008
x2 = 0.7252	1187.4	1182.4	1177.9	1.145	1.066	0.9996
x2 = 0.7724	1161.1	1155.9	1150.9	1.145	1.063	0.9971
x2 = 0.819	1134.4	1128.5	1123.2	1.139	1.058	0.9881
x2 = 0.865	1107.7	1101.6	1096	1.131	1.052	0.9836
x2 = 0.9105	1081	1074.7	1069.2	1.123	1.05	0.9785
x2 = 0.9555	1052.6	1046.5	1041.2	1.117	1.046	0.9667

ClC(Cl)(Cl)Cl [tetrachloromethane] + CCCCO
[2]
Conditions	mass density, 303.15 K [kg/m3]	mass density, 308.15 K [kg/m3]	mass density, 313.15 K [kg/m3]	viscosity, 303.15 K [mPa·s]	viscosity, 308.15 K [mPa·s]	viscosity, 313.15 K [mPa·s]
x1 = 0.0954	885	876	873.9	2.028	1.698	1.498
x1 = 0.1918	964.8	955.5	953	1.708	1.444	1.293
x1 = 0.2891	1044.5	1034.7	1031.7	1.496	1.276	1.172
x1 = 0.3875	1123.5	1113.8	1110.1	1.356	1.157	1.069
x1 = 0.4869	1201.2	1191.8	1187.6	1.248	1.096	1.038
x1 = 0.5874	1277.3	1268.5	1264.2	1.157	1.052	0.9981
x1 = 0.6889	1352.2	1344.8	1340.9	1.069	1.004	0.9502
x1 = 0.7401	1389.9	1382.7	1378.8	1.025	0.9705	0.9211
x1 = 0.7915	1427.1	1420.2	1415.9	1.005	0.9552	0.8947
x1 = 0.8432	1463.6	1457.8	1454.2	0.9778	0.9211	0.8727
x1 = 0.8952	1501.2	1495.7	1491.8	0.9554	0.8975	0.8612
x1 = 0.9475	1538.9	1534.3	1530.5	0.9164	0.8787	0.8346
x1 = 1	1580.6	1575.7	1571.3	0.8689	0.8307	0.8072
